# Experimental data taken from patent US20240050435A1, “METHODS FOR TREATING CANCER” (Washington University, priority 2022, published 2024).
# Key:
# [1] = target: ATR (Homo sapiens, UniProt Q13535); settings: cited from earlier work
# [2] = test system: TP53-mutant hematopoietic stem cells (HSCs); experiment: Mixed bone marrow chimeras (wildtype and R172H TP53 bone marrow); assay type: in vivo; settings: mice with mixed wildtype / R172H TP53 bone marrow chimeras
# Excerpt: To assess the impact of combination treatment on TP53-mutant hematopoietic stem cells (HSCs), mixed bone marrow chimeras transplanted with both wildtype and R172H TP53 bone marrow were established as illustrated in FIG. 13.
# Chain of ATR (Q13535 whole entry): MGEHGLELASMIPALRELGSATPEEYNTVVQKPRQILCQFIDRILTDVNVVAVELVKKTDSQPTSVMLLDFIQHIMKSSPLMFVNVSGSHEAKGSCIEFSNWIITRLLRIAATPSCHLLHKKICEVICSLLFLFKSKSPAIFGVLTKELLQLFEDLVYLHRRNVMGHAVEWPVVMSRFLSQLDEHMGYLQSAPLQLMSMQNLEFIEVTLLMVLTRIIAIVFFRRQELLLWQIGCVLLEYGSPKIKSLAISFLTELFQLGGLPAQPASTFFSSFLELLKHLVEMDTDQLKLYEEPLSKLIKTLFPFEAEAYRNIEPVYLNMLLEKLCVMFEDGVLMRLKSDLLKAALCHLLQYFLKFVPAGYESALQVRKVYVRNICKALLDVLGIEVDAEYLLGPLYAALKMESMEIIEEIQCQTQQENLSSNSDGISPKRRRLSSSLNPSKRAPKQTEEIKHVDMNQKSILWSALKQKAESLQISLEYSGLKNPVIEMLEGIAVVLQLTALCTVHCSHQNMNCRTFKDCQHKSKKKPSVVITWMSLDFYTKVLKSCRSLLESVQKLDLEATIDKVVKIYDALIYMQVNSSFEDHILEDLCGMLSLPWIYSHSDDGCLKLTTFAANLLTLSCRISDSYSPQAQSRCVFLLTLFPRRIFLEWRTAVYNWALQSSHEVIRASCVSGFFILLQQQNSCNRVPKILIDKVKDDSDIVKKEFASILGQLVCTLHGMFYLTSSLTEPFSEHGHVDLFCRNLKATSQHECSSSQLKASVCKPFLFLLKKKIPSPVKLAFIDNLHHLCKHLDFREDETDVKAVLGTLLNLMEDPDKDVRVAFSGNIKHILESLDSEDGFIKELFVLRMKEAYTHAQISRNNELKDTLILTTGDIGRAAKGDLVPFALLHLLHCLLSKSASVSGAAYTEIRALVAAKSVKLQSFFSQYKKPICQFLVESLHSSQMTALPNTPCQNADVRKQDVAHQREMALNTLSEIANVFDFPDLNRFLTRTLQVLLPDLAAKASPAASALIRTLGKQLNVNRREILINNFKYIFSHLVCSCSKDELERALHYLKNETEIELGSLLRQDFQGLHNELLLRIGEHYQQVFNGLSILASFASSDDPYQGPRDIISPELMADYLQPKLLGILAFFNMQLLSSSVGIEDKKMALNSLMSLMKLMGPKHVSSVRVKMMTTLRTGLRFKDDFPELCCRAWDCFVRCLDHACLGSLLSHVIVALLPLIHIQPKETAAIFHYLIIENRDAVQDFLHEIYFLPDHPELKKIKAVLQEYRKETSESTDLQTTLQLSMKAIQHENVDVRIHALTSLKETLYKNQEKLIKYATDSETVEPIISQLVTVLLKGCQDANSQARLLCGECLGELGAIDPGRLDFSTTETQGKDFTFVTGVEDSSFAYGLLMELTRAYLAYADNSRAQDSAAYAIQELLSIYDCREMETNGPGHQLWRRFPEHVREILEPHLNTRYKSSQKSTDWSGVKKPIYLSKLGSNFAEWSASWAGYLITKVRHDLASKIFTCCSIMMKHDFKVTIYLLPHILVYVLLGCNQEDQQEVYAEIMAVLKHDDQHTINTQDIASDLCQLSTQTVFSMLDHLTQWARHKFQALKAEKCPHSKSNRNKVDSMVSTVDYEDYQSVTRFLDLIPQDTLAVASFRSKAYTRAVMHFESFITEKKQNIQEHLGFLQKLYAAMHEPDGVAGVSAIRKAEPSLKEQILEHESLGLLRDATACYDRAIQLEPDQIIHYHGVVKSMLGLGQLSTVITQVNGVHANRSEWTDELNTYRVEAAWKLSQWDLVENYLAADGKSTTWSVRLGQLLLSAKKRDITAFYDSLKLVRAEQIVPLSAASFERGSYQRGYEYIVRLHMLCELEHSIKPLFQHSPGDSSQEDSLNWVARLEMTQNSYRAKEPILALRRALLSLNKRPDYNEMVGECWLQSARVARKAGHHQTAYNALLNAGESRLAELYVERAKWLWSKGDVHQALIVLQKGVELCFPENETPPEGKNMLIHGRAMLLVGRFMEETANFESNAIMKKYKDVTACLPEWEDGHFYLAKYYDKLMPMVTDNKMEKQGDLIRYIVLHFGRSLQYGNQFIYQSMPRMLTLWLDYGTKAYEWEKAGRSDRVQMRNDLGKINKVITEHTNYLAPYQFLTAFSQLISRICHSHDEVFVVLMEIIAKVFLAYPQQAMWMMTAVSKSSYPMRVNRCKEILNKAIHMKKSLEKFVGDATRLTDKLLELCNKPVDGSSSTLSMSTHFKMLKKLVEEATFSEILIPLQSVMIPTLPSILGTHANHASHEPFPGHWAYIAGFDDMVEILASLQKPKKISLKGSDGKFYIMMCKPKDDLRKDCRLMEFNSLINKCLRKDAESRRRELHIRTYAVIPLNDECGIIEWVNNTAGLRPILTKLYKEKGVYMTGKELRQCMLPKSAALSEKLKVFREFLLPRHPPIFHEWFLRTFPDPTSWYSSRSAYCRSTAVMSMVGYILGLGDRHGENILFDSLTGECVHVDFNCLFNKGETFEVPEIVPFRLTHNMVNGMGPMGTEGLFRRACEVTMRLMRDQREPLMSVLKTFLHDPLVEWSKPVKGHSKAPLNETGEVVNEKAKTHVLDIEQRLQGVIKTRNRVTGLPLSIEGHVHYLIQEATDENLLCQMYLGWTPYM
# Chain of ATR (Q8WXE1 whole entry partner): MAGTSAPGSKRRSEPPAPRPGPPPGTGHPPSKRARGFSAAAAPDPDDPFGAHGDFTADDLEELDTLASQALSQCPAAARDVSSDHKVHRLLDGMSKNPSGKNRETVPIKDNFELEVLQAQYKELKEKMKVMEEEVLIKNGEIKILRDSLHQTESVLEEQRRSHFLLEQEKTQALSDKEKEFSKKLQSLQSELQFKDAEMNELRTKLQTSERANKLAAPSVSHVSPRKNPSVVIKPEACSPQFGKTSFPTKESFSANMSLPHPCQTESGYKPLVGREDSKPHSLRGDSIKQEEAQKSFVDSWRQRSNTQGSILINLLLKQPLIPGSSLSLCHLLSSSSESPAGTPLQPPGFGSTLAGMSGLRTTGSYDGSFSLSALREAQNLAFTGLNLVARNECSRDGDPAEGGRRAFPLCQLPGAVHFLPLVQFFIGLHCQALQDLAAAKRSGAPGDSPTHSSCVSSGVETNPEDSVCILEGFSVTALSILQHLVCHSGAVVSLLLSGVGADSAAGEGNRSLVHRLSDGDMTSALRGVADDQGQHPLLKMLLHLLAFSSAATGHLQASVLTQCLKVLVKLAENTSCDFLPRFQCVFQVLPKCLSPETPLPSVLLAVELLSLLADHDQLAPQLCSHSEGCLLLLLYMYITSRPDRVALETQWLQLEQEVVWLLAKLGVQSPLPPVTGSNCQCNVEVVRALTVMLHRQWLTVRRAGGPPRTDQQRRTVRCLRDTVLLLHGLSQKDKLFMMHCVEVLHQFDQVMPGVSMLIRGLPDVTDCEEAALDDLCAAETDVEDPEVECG
smiles,measurement,setting,value
Cn1cncc1-c1c(F)cncc1NC(=O)c1c(N)nn2cc(F)cnc12 [M1774],inhibition of ATR signaling,[1],potent and specific inhibitor of ATR signaling
N.N.[Cl][Pt][Cl] [cis-platinum],effect on TP53-mutant HSCs,[2],significant expansion of TP53-mutant HSCs
